Results reported in PMC6892925, “Development of Novel Silyl Cyanocinnamic Acid Derivatives as Metabolic Plasticity Inhibitors for Cancer Treatment” (Scientific Reports, 2019).
Entries after “also recorded” stand apart in the source; their conditions may differ.

What was measured:
[1] = test system: MCT1 expressing WiDr cell line; experiment: Seahorse XFe96 glycolysis stress test (ECAR); format: cell-based, human; conditions: 30 µM, vs DMSO control
Method: (§1) Candidate compounds 2a and 2b were evaluated for their effect on glycolysis, glycolytic capacity and glycolytic reserve. This assay measures extracellular acidification rate (ECAR) which is directly correlated with the rate of glycolysis. The ECAR for both cell lines in the presence of the test compounds can be seen above (Fig. 4B,C). In this assay, cells were initially starved of glucose to reduce their ECAR. Upon addition of glucose, a rise in ECAR was observed proportional to the rate of glycolysis in each cell line. An increase in basal levels of glycolysis in cells treated with test compounds compared to the controls represents a shift toward dependency on glycolysis for ATP production. […] Glycolytic capacity is the maximum rate of glycolysis the cell can attain in the absence of OxPhos as an ATP source.
(§2) 20,000 cells/well were plated in 96-well Seahorse plates (Agilent, part no. 101085-004) and incubated 16–24 hours at 37 °C at 5% CO2. Flux pack sensors (Agilent, part no. 102416-100) were hydrated with XF calibrant solution (Agilent, part no. 100840-000) overnight at 37 °C in a non-CO2 incubator. The serum free assay media was prepared from Seahorse base medium (Agilent, part no. 102353-100) enriched with glutamine (1 mM) and sodium pyruvate (1 mM). The pH of the media was adjusted to 7.4. For glycolysis stress test the serum free assay media was used. For the mitochondrial stress test glucose (10 mM) was added to make an enriched serum free assay media. For both stress tests an 8X stock concentration of test compounds in their respective media was prepared for microplate injections in port A. Stock solutions of glucose (90 mM), oligomycin (10 μM), and 2-deoxyglucose (Chem Impex, 550 mM) were prepared such that their final working concentrations are 10 mM, 1 μM and 50 mM, respectively, for glycolysis stress test. For mitochondrial stress test, stock solutions of oligomycin (9 µM), FCCP (2.5–10 µM, cell line dependent), rotenone + antimycin A (5.5 µM) were prepared such that their final concentrations were 1 µM, 0.25–1 µM, and 0.5 µM, respectively in the enriched test media. Under glycolytic stress test, the cells were treated with test compounds, followed by the addition of glucose, oligomycin and 2-deoxyglucose at 14.29, 33.8, 53.35, 72.87 minutes, respectively. Under mitochondrial stress test, cells were treated with test compounds, followed by the addition of oligomycin, FCCP, and rotenone + antimycin A, at 14.29, 33.8, 53.35, 72.87 minutes, respectively. Extracellular acidification rates (ECAR) and oxygen consumption rates (OCR) were recorded in real-time for glycolysis and mitochondrial stress tests, respectively, using a Seahorse XFe96® analyzer (Agilent). The parameters related to glycolytic and mitochondrial functions were calculated utilizing the Wave 2.4.0 software (Agilent). ATP rate assay experiment was performed using manufactures (Agilent) protocol, and respective mitochondrial and glycolytic ATP rates were normalized to protein (BCA assay) and calculated using Wave 2.4.0 software.

[2] = test system: MCT4 expressing MDA-MB-231 cell line; experiment: Seahorse XFe96 glycolysis stress test (ECAR); format: cell-based, human; conditions: 30 µM, MDA-MB-231, vs DMSO control
Method: as §1, §2

WiDr cell line = experiment: MTT cell proliferation inhibition assay; conditions: Homo sapiens, read-out: MTT IC50
Method: (§5) Human triple-negative breast cancer MDA-MB-231 cells (ATCC) were grown in DMEM supplemented with 10% FBS (Atlanta Biologicals) and penicillin-streptomycin (50U/ml, 50 µg/ml, Invitrogen). Human colorectal adenocarcinoma WiDr cells (ATCC) were cultured in MEM medium supplemented with 10% FBS and penicillin-streptomycin. […] Murine metastatic breast cancer 4T1 cells were grown in RPMI-1640 supplemented with 10% FBS and penicillin-streptomycin. Human estrogen receptor positive breast cancer MCF7 cells (Masonic Cancer Center, University of Minnesota) were grown in MEM supplemented with 6% FBS, EGF (0.01 µg/ml), NEAA, HDC (1 µg/ml), insulin (10 µg/ml), HEPES (12 mM) and sodium pyruvate (1 mM).
(§6) Cell proliferation inhibition was evaluated using 3-(4,5-dimethylthiazol-2-yl)-2,5-diphenyl tetrazolium bromide (MTT) assay as reported previously[19].

MCF7 cell line = experiment: MTT cell proliferation inhibition assay; conditions: Homo sapiens, MCF7, read-out: MTT IC50
Method: as §5, §6

WiDr cells = experiment: Mitotracker Red CMXROS fluorescent microscopy; format: cell-based, human; conditions: 30 μM, 24-hour exposure
Method: (§3) To evaluate the effects on mitochondrial morphology and vitality, Mitotracker Red CMXROS (MTR) fluorescence imaging experiments were employed. […] Furthermore, differential interference contrast (DIC) microscope images illustrate substantial membrane blebbing and vesiculation in compound treated cultures (Fig. 6).
(§4) MDA-MB-231 or WiDr cells (5 × 10^4 cells/mL) were seeded in glass-bottom dishes (MatTek Corp, part no. P35G010C) and incubated for 48 hours. Test compound (30 μM) was added and cells were again incubated for 24 hours prior to fluorescent microscopic imaging. In some cultures, MitoTracker Red CMXROS (Invitrogen, M7512, 100 nM) was added 15 min prior to imaging. The growth media was removed and replaced with 5% FBS in 1X PBS for imaging. Cells were then examined and photographed using a Nikon TE2000 epifluorescent microscope and camera. The images shown are representative of at least 3 fields of view of three separate experiments.

MDA-MB-231 cells = experiment: Mitotracker Red CMXROS fluorescent microscopy; format: cell-based, human; conditions: 30 μM, 24-hour exposure
Method: as §3, §4

4T1 cell line = experiment: MTT cell proliferation inhibition assay; conditions: Mus musculus, 4T1, read-out: MTT IC50
Method: as §5, §6

[3] = test system: MCF7, 4T1, WiDr, and MDA-MB-231 cell lines; experiment: MTT cell proliferation inhibition, all cell lines tested; format: cell-based; conditions: read-out: MTT IC50 values, span over all the cell lines tested
Method: as §6

[4] = test system: MCT1 expressing WiDr tumor xenograft; experiment: In vivo tumor growth inhibition study, WiDr tumor xenograft; parameters: species or system mouse; conditions: 25 mg/kg i.p., 16 days; for tumor growth suppression: vs control group
Method: Based on in vitro cell proliferation inhibition, MCT1 inhibition, and effects on glycolysis/mitochondrial function, we advanced candidate compounds 2a and 2b for translational in vivo safety and efficacy studies. […] Next, an MCT1 expressing WiDr tumor xenograft model was chosen to evaluate the efficacy of 2a and 2b. After tumors were inoculated, they were allowed to reach ~150 mm^3 volume, and mice were randomly divided into three groups. Group-1 was administered 25 mg/kg (i.p.) of compound 2a, group-2 was administered with 25 mg/kg (i.p.) of 2b, and group-3 was designated as control group and given an injection of vehicle. Treatment was continued for 16 days, and tumor volumes were recorded. […] During the two-week treatment period, there was no significant loss of body weights in mice between treated and control groups. […] At the end of the study, all the tumors were resected, and the tumor mass was weighed (Fig. 6D).
WiDr cells (5 × 10^6 cells) were suspended in 1:1 mixture of matrigel (Corning, cat. no. 356237) and PBS and injected subcutaneously into the right flank of female athymic nude mice (Charles River). The mice were randomly assigned into 3 groups (n = 6 mice per group). Vertical and horizontal diameters of tumors were measured every two- or three-days using calipers. The tumor volumes were calculated assuming a perfect sphere using the formula V = ab^2/2 where ‘a’ is the longer diameter of the tumor and ‘b’ is the shorter diameter of the tumor. Treatment was initiated when the tumor volume reached 100 mm^3. The study was terminated after sixteen days and tumors were then resected and weighed. All procedures performed using this method were approved by the University of Minnesota Institutional Animal Care and Use Committee (IACUC, protocol no. 1612-34444A) and are in accordance with all guidelines and regulations.

| SMILES | basal glycolysis (ECAR) [1] | glycolytic reserve (ECAR) [1] | basal glycolysis (ECAR) [2] | glycolytic capacity (ECAR) [2] | glycolytic reserve (ECAR) [2] | IC50 (WiDr cell line) [µM] | IC50 (MCF7 cell line) [µM] | MTR fluorescence / mitochondrial morphology (WiDr cells) | MTR fluorescence / mitochondrial morphology (MDA-MB-231 cells) | IC50 (4T1 cell line) [µM] | IC50 [3] [µM] | tumor volume vs control group [4] | tumor growth suppression [4] [%] |
| --- | --- | --- | --- | --- | --- | --- | --- | --- | --- | --- | --- | --- | --- |
| CC(C)(C)[Si](Oc1ccc(/C=C(\C#N)C(=O)O)cc1)(c1ccccc1)c1ccccc1 [2a] | significantly increased | significant decrease | significantly increased | significantly reduced | significant decrease | 41 ± 2 | 39 ± 3 | more diffuse and dim general cytoplasmic fluorescence; also recorded: substantial redistribution of MTR | more diffuse and dim general cytoplasmic fluorescence; also recorded: substantial redistribution of MTR | 56 ± 1 | 6 to 93 | significant suppression in tumor volume | 36 |
| CC(C)(C)[Si](OCCOc1ccc(/C=C(\C#N)C(=O)O)cc1)(c1ccccc1)c1ccccc1 [2b] | significantly increased | significant decrease | significantly increased | significantly reduced | significant decrease | 6 ± 1 | 35 ± 3 |  |  | 22 ± 1 | 6 to 93 |  | 28 |
